This note sets out measurements from patent publication US20230346931A1, “ALTERNATIVE SURFACTANTS AS STABILIZERS FOR THERAPEUTIC PROTEIN FORMULATIONS” (Hoffmann-La Roche Inc., priority 2020, published 2023).

Common to all, as to type: physicochemical
One data set concerns model mAb. Briefly: Thermal conformational protein stability in presence of surfactants (nanoDSF). The conditions noted are these: for effect on mAbs' conformational stability: elevated surfactant concentrations; for change of Tm1: surfactant 10 mg/mL; for change in thermal conformational stability properties: already at lower concentrations of 0.1 & mg/mL. The source says:
Conformational protein stability was investigated with the Prometheus NT.Plex (NanoTemper Technologies GmbH, München, Germany). The device allows the label-free fluorimetric analysis of the change in intrinsic protein fluorescence from aromatic tryptophan and tyrosine residues by using small quantities of solution. Thermal induced protein unfolding was monitored by detecting the emission shift at 330 nm and 350 nm at a laser power of 5%. The nanoDSF grade standard capillary chips (NanoTemper Technologies, München, Germany) were filled with 10 μL of freshly prepared (t0) formulation containing 25 mg/mL mAb compounded with either 0.01, 0.1, 1 or 10 mg/mL of the specific surfactant. Sodium dodecyl sulfate (SDS) was taken as positive control since the charge as been reported to lead to destabilization of proteins presumably by chare-charge interactions. Samples were heated from 25 to 95° C. with a constant heating ramp of 0.5° C. per minute. The PR.StabilityAnalysis software (NanoTemper Technologies, München, Germany) automatically calculated the onset (Ton) and first transition point (Tm1) temperature of the melting curve. Data reported are the mean value of three individual measurements.
Stability indicating parameters being the onset temperature (Ton) of unfolding and the first melting transition (Tm1) were measured for the model mAb in presence of surfactants at concentrations ranging from 0.01 mg/mL to 10 mg/mL (see FIG. 4).

The test system of data set [1] is mAb 1. As to the kind of experiment: Protein stability in presence of surfactants after mechanical stresses (shaking, freeze-thaw) and thermal stress, mAb 1. The conditions noted are these: for particle formation upon shaking: 200 rpm, 7 days, 5° C. and 25° C.; for SVP ≥10 μm per container after shaking: criteria of maximum 6,000 particles≥10 μm per container. The procedure: (§1) Surfactant performance screens were carried out with 0.1 and 1 mg/mL of the surfactant in the formulation of the model mAb described within the Materials section. After compounding the liquid samples were sterile filtered through 0.22 μm Millex Sterivex™ GV (Millipore, Bedford, USA) filter units, filled into 6 mL type 1 glass vials and closed with Ø 20 mm teflon® coated serum stoppers (DAIKYO Seiko Ltd., Tokyo, Japan). The stoppered vials were crimped using an aluminum cap (Infochroma AG, Goldau, Switzerland). The corresponding placebo formulations were equally prepared, formulated and used as respective controls.
To evaluate the effects of the surfactants on the mAb's stability the formulations were exposed to various interfacial stress conditions like agitation and various freeze-thaw cycles. Shaking stress was carried by placing the vials horizontally for seven days at 5° C. and 25° C. protected from light within a shaker (HS 260 Control Model; IKA Werke GmbH & Co. KG; Staufen, Germany) at constant 200 rounds per minute (rpm). Freeze-thaw (F/T) stress was performed by exposing the vials to five consecutive cycles of freezing at −20° C. and thawing at 5° C.
Thermal stability data was generated by storing the liquid protein formulations for up to 24 months (mo) at 5° C., for 6 months at 25° C./60% relative humidity (rH) and 12 weeks at 40° C./75% rH. Samples were analyzed at initial time point (t0) and after 1 mo, 3 mo, 6 mo, 12 mo, 18 mo and 24 months of storage using the subsequently described analytical methods
Enhanced visual inspection was performed as previously described using a Seidenader V 90-T machine (Seidenader Maschinenbau GmbH, Markt Schwaben, Germany)[58]. The number of particles were categorized into four classes: class (I) is equivalent to 0 particles, class (II) is equivalent to 1-5 particles, class (III) is equivalent to 6-10 particles and class (IV) is equivalent to >10 particles.
Turbidity was determined as previously described in literature and according to Ph. Eur. 2.2.1 using a 2100AN turbidimeter (Hach Lange GmbH, Dusseldorf, Germany) calibrated with a StablCal® calibration kit (Hach Lange GmbH). Results were given as Nephelometic Turbidity Units (NTU).
The color of the solutions was assessed by means of a LICO 690 Colorimeter (Hach Lange GmbH). Classification was performed according to the color scale described in Ph. Eur. 2.2.2.. Data presented herein show the degree of color change according to color scale values of Ph.Eur. 2.2.2: class (I) is equivalent to color scale values of 9, 8, 7, or colorless; class (II) is equivalent to color scale values of 6 or 5; class (III) is equivalent to color scale values of 4 or 3; and class (IV) is equivalent to color scale values of 2 or 1.
Sub-visible particle (SVP) count was measured by means of light obscuration using a HIAC 9703+ liquid particle counting system (Skan AG, Allschwil, Switzerland) and PharmSpec 3 (Hach Lange GmbH) software. The applied measurement technique was adapted from the method described in Ph.Eur. 2.9.19 [61] and USP <787>[62]. After rinsing the system with sample solution, four runs with a sample volume of 0.2 mL were performed. The final cumulative particle count was obtained by calculating the mean ±SD (standard deviation) from the last three measurements. SVP bigger than or equal to 2, 5, 10 and 25 μm were measured and presented as cumulative counts per mL of solution.
Detection of soluble mAb aggregates, in the following referred to as high molecular weight species (HMWS), the monomer and the low molecular weight species (LMWs) were analyzed by SE-HPLC. The utilized system comprised an Alliance 2695 HPLC instrument equipped with a 2487 UV detector (both from Waters Corporation, Milford, MA). The autosampler temperature was set to 5° C. and the system was loaded with total 100 μg of the mAb. […]

Data set [2] has as its system mAb 1. Briefly: Long-term protein stability (storage at 5° C. and 25° C.), mAb 1. The conditions noted are these: higher concentrations. The procedure:
as §1
Thermal stability data was generated by storing the liquid protein formulations for up to 24 months (mo) at 5° C., for 6 months at 25° C./60% relative humidity (rH) and 12 weeks at 40° C./75% rH. Samples were analyzed at initial time point (t0) and after 1 mo, 3 mo, 6 mo, 12 mo, 18 mo and 24 months of storage using the subsequently described analytical methods […]
Turbidity was determined as previously described in literature and according to Ph. […]
The color of the solutions was assessed by means of a LICO 690 Colorimeter (Hach Lange GmbH). […]
Sub-visible particle (SVP) count was measured by means of light obscuration using a HIAC 9703+ liquid particle counting system (Skan AG, Allschwil, Switzerland) and PharmSpec 3 (Hach Lange GmbH) software. […]

Data set [3] in a line: Surface tension measurement (dynamic surface tension, DST). The following applies: mAb formulation at t0. The protocol: Surface tension measurements were performed by means of liquid handling stations according to a method described by Amrhein et al.[63]. Briefly, the measurement depends on the correlation between drop mass and the surface tension of the sample. For this study a fully automated liquid handling station Freedom 384 EVO 200 (Tecan, Crailsheim, Germany) was equipped with an analytical balance (Mettler Toledo, Columbus, USA). The system contains stainless fixed tips which aspirate the sample with 100 μL·s^−1 from a sealed 1 mL round bottom LoBind® Deepwell Plate (Eppendorf, Hamburg, Germany). The sample was dispensed with 3 μL·s^−1 to a second round bottom Deepwell Plate 96/500 μL (Eppendorf, Hamburg, Germany) mounted on an analytical balance. The weight was recorded continuously using fully automated routines written in Matlab R2017b (MathWorks, Natick, MA, USA). The surface tension of water (72.6 mN/m) was used as a reference for calculations. The mean of three individual measurements of the samples (at t0) is reported as surface tension.

Consider `CCCCCCCCCC(=O)N(CCO)C[C@H](O)[C@@H](O)[C@H](O)[C@H](O)CO` [HEGA-10, decanoyl-N-hydroxyethylglucamide], for which, in the data set with model mAb, the “effect on mAbs' conformational stability” value was “destabilizing effect” and the “change of Tm1” value was “comparable destabilizing effect”. The “change of Ton” value with model mAb (surfactant 1 and 10 mg/mL) is “comparable destabilizing effect”.
`CCCCCCCCCCCCOS(=O)(=O)[O-].[Na+]` [SDS, Sodium dodecyl sulfate, reference compound]: in the data set with model mAb (surfactant 0.01 to 10 mg/mL), the “effect on Ton and Tm1 compared to reference formulation without surfactant” value is “concentration dependent destabilizing effect”.
Regarding sodium deoxy cholate [NaDC], the “change in thermal conformational stability properties” value in the data set with model mAb was “strong decrease in thermal conformational stability properties”.
In the case of `C[C@H](CCC(=O)N(CCCNC(=O)[C@H](O)[C@@H](O)[C@H](O)[C@H](O)CO)CCCNC(=O)[C@H](O)[C@@H](O)[C@H](O)[C@H](O)CO)[C@H]1CC[C@H]2[C@@H]3CC[C@@H]4C[C@H](O)CC[C@]4(C)[C@H]3C[C@H](O)[C@]12C` [DBC, Deoxy-BigCHAP], in the data set on mAb 1 [1] (1 mg/mL surfactant), the visible particles initially entry is listed as “many particles initially”. In addition, in the data set on mAb 1 [1], the “particle formation upon shaking” value was “particle formation particularly after agitation” and the “SVP ≥10 μm per container after shaking” value is “exceeded USP <787> criteria”. Moreover, the solubility in formulation entry with mAb 1 [2] is recorded as “solubility issues”. Moreover, in the data set with model mAb, the “effect on mAbs' conformational stability” value is given as “destabilizing effect” and the “change of Tm1” value was “slight decrease”. In addition, the “change of Ton” value in the data set with model mAb (surfactant 1 and 10 mg/mL) is recorded as “slight decrease in Ton”.
For Chobimalt, in the data set with mAb 1 [1], the “color after shaking stress” value is “strong change in color”, the “particle formation upon shaking” value is “strongest particle formation upon shaking” and the “SVP ≥10 μm per container after shaking” value is given as “exceeded USP <787> criteria”. The “stabilizing effect upon F/T studies” value in the data set on mAb 1 [1] (5 freeze-thaw cycles) is reported as “missing stabilizing effect at the interface”. Further, in data set [3], the dynamic surface tension result is “around 73 mN/m”. Moreover, the “effect on mAbs' conformational stability” value in the data set with model mAb is recorded as “no impact”. Further, the “change of Ton” value in the data set with model mAb (surfactant 1 mg/mL or higher) was “slight increase of Ton”.
In the case of `C[C@H](CCC(=O)NCC(=O)[O-])[C@H]1CC[C@H]2[C@@H]3[C@H](O)C[C@@H]4C[C@H](O)CC[C@]4(C)[C@H]3C[C@H](O)[C@]12C.O.[Na+]` [NaGC, sodium glycocholate hydrate], the “change in thermal conformational stability properties” value in the data set on model mAb was “strong decrease in thermal conformational stability properties”.
`CCCCCCCCC(=O)N(C)C[C@H](O)[C@@H](O)[C@H](O)[C@H](O)CO` [MEGA-9, nonanoyl-N-methylglucamide]: in the data set on model mAb, the “effect on mAbs' conformational stability” value is “destabilizing effect” and the “change of Tm1” value is listed as “comparable destabilizing effect”. In addition, the “change of Ton” value in the data set with model mAb (surfactant 1 and 10 mg/mL) was “comparable destabilizing effect”.
